This experiment has as its target T1, Purified P450arom (aromatase) reconstituted with P450-reductase (CPR) (Homo sapiens, UniProt P11511).
T1 sequence (P11511 1-503): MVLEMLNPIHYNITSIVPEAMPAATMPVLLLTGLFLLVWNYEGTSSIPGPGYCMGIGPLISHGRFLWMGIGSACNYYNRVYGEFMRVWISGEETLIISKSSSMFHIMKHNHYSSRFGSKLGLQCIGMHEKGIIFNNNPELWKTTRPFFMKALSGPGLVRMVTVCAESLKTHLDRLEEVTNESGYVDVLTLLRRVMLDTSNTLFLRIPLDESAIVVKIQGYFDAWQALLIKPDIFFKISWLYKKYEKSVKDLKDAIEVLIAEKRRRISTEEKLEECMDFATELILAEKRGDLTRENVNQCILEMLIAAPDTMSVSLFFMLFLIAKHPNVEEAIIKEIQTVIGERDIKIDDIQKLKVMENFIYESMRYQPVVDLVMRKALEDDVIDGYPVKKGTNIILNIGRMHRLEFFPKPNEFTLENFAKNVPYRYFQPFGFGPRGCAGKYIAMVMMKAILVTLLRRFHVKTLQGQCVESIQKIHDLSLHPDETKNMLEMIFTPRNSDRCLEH
Kind of experiment: Measurement of aromatase activity by 3H-water method. Format: biochemical. The following applies: substrate 0.24 μM [1β-3H, 4-14C] androstenedione, 37° C., 20 minutes.

Where [1] appears, read: compound concentration 10 (μmol).
The mark [2] stands for this setting: compound concentration 0.1 (μmol).
[3] abbreviates: compound concentration 1 (μmol).

Regarding `CC(C)(C)O[C@@H]1C[C@@H]2[C@H](CC[C@]3(C)C(=O)CC[C@@H]23)[C@@]2(C)C=CC(=O)C=C12` [HDDG-015], the “% Inhibition” value under setting [1] is listed as 54%.

`CCC#CCO[C@@H]1C[C@@H]2[C@H](CC[C@]3(C)C(=O)CC[C@@H]23)[C@@]2(C)CCC(=O)C=C12` [HDDG-042]: the “% Inhibition” value reads like this: under setting [2], 40%; under setting [3], 95%; under setting [1], 99%.

With `COc1ccc(COC2=C(O)CC[C@@]3(C)C2=CC[C@@H]2[C@@H]3CC[C@]3(C)C(=O)CC[C@@H]23)cc1` [HDDG-064], the “% Inhibition” value was 96% under setting [2] and 96% under setting [3].

For the molecule `C[C@]12C=CC(=O)C=C1[C@H](OCC#Cc1ccc(Cl)c(Cl)c1)C[C@@H]1[C@@H]2CC[C@]2(C)C(=O)CC[C@@H]12` [HDDG-053, (6R,8R,9S,10R,13S,14S)-6-((3-(3,4-dichlorophenyl)prop-2-yn-1-yl)oxy)-10,13-dimethyl-7,8,9,10,11,12,13,14,15,16-decahydro-3H-cyclopenta[α]phenanthrene-3,17(6H)-dione], the “% Inhibition” value was 95% under setting [2] and 91% under setting [3].

Regarding `COC1=C(O)CC[C@@]2(C)C1=CC[C@@H]1[C@@H]2CC[C@]2(C)C(=O)CC[C@@H]12` [HDDG-020], the “% Inhibition” value came out at 21% under setting [2], 72% under setting [3] and 61% under setting [1].

As to `C[C@]12C=CC(=O)C(=[N+]=[N-])C1=CC[C@@H]1[C@@H]2CC[C@]2(C)C(=O)CC[C@@H]12` [HDDG-004], the “% Inhibition” value under setting [3] is 25% and the “% Inhibition” value under setting [1] amounted to 40%.

Regarding `C[C@]12C=CC(O)=C(OC(=O)Cc3ccccc3)C1=CC[C@@H]1[C@@H]2CC[C@]2(C)C(=O)CC[C@@H]12` [HDDG-019], the “% Inhibition” value reads like this: under setting [2], 29%; under setting [1], 54%.

With `CCCC#CCO[C@@H]1C[C@@H]2[C@H](CC[C@]3(C)C(=O)CC[C@@H]23)[C@@]2(C)C=CC(=O)C=C12` [HDDG-047], the “% Inhibition” value under setting [2] was 42%, the “% Inhibition” value under setting [3] was 95% and the “% Inhibition” value under setting [1] was found to be 99%.

Consider `C[C@]12C=CC(=O)C=C1[C@H](OCC#CCO)C[C@@H]1[C@@H]2CC[C@]2(C)C(=O)CC[C@@H]12` [HDDG-065], for which the “% Inhibition” value runs as follows: under setting [2], 96%; under setting [3], 84%.

With `C[C@]12C=CC(=O)C=C1[C@@H](Br)C[C@@H]1[C@@H]2CC[C@]2(C)C(=O)CC[C@@H]12` [HDDG-040], the “% Inhibition” value reads like this: under setting [2], 54%; under setting [3], 94%; under setting [1], 98%.

With `C[C@]12CCC(=O)C=C1[C@H](OCc1ccccc1)C[C@@H]1[C@@H]2CC[C@]2(C)C(=O)CC[C@@H]12` [HDDG-041], the “% Inhibition” value was determined as 34% under setting [2], 95% under setting [3] and 87% under setting [1].

As to `CC/C=C\CO[C@@H]1C[C@@H]2[C@H](CC[C@]3(C)C(=O)CC[C@@H]23)[C@@]2(C)C=CC(=O)C=C12` [HDDG-062, (6R,8R,9S,10R,13S,14S)-10,13-dimethyl-6-((Z)-pent-2-en-1-yloxy)-7,8,9,10,11,12,13,14,15,16-decahydro-3H-cyclopenta[α]phenanthrene-3,17(6H)-dione], the “% Inhibition” value by setting is: under setting [2], 97%; under setting [3], 96%.

Consider `CC(=O)OC1=C(O)C=C[C@@]2(C)C1=CC[C@@H]1[C@@H]2CC[C@]2(C)C(=O)CC[C@@H]12` [HDDG-039], for which the “% Inhibition” value under setting [2] amounted to 33%, the “% Inhibition” value under setting [3] amounted to 98% and the “% Inhibition” value under setting [1] is given as 88%.

Turning to `CCC(=O)O[C@@H]1C[C@@H]2[C@H](CC[C@]3(C)C(=O)CC[C@@H]23)[C@@]2(C)C=CC(=O)C=C12` [HDDG-030], the “% Inhibition” value under setting [2] was determined as 3%, the “% Inhibition” value under setting [3] is on record as 0% and the “% Inhibition” value under setting [1] stood at 29%.

With `C[C@]12C=CC(=O)C=C1[C@H](OCc1ccccc1)C[C@@H]1[C@@H]2CC[C@]2(C)C(=O)CC[C@@H]12` [HDDG-016], the “% Inhibition” value under setting [1] stood at 52%.

For the molecule `CC(C)(C)O[C@@H]1C[C@@H]2[C@H](CC[C@]3(C)C(=O)CC[C@@H]23)[C@@]2(C)CCC(=O)C=C12` [HDDG-024], the “% Inhibition” value was found to be 16% under setting [2], 78% under setting [3] and 76% under setting [1].

As to `CCCCC#CCO[C@@H]1C[C@@H]2[C@H](CC[C@]3(C)C(=O)CC[C@@H]23)[C@@]2(C)C=CC(=O)C=C12` [HDDG-048], the “% Inhibition” value stood at 48% under setting [2], 87% under setting [3] and 97% under setting [1].

As to `C[C@]12C=CC(=O)C=C1[C@H](OCC#Cc1ccccc1)C[C@@H]1[C@@H]2CC[C@]2(C)C(=O)CC[C@@H]12` [HDDG-027], the “% Inhibition” value under setting [2] is reported as 27%, the “% Inhibition” value under setting [3] turned out to be 66% and the “% Inhibition” value under setting [1] is on record as 94%.

For the molecule `C[C@]12C=CC(=O)C=C1[C@H](OCC#Cc1cccc3ccccc13)C[C@@H]1[C@@H]2CC[C@]2(C)C(=O)CC[C@@H]12` [HDDG-054, (6R,8R,9S,10R,13S,14S)-10,13-dimethyl-6-((3-(naphthalen-1-yl)prop-2-yn-1-yl)oxy)-7,8,9,10,11,12,13,14,15,16-decahydro-3H-cyclopenta[α]phenanthrene-3,17(6H)-dione], the “% Inhibition” value under setting [2] was determined as 94% and the “% Inhibition” value under setting [3] turned out to be 92%.

`C[C@]12CCC(O)=C(OCc3ccccc3)C1=CC[C@@H]1[C@@H]2CC[C@]2(C)C(=O)CC[C@@H]12` [HDDG-050, (8R,9S,10R,13S,14S)-4-(benzyloxy)-3-hydroxy-10,13-dimethyl-7,8,9,10,11,12,13,14,15,16-decahydro-1H-cyclopenta[α]phenanthren-17(2H)-one]: the “% Inhibition” value is, setting by setting: under setting [2], 75%; under setting [3], 96%; under setting [1], 100%.

Regarding `CCCCO[C@@H]1C[C@@H]2[C@H](CC[C@]3(C)C(=O)CC[C@@H]23)[C@@]2(C)C=CC(=O)C=C12` [HDDG-044, (6R,8S,9S,10R,13S,14S)-6-butoxy-10,13-dimethyl-7,8,9,10,11,12,13,14,15,16-decahydro-3H-cyclopenta[α]phenanthrene-3,17(6H)-dione], the “% Inhibition” value is, setting by setting: under setting [2], 73%; under setting [3], 96%; under setting [1], 86%.

Regarding `CCOC1=C(O)CC[C@@]2(C)C1=CC[C@@H]1[C@@H]2CC[C@]2(C)C(=O)CC[C@@H]12` [HDDG-034], the “% Inhibition” value is, setting by setting: under setting [2], 14%; under setting [3], 96%; under setting [1], 88%.

With `C[C@]12C=CC(O)=C(OCc3ccccc3)C1=CC[C@@H]1[C@@H]2CC[C@]2(C)C(=O)CC[C@@H]12` [HDDG-043], the “% Inhibition” value under setting [2] worked out at 18%, the “% Inhibition” value under setting [3] was determined as 97% and the “% Inhibition” value under setting [1] amounted to 90%.

Take `CC#CCO[C@@H]1C[C@@H]2[C@H](CC[C@]3(C)C(=O)CC[C@@H]23)[C@@]2(C)C=CC(=O)C=C12` [HDDG-029]: the “% Inhibition” value is, setting by setting: under setting [2], 34%; under setting [3], 63%; under setting [1], 95%.

In the case of `C[C@]12C=CC(=O)C=C1[C@H](OC/C=C/c1ccccc1)C[C@@H]1[C@@H]2CC[C@]2(C)C(=O)CC[C@@H]12` [HDDG-058, (6R,8R,9S,10R,13S,14S)-6-(cinnamyloxy)-10,13-dimethyl-7,8,9,10,11,12,13,14,15,16-decahydro-3H-cyclopenta[α]phenanthrene-3,17(6H)-dione], the “% Inhibition” value by setting is: under setting [2], 95%; under setting [3], 94%.

With `C#CCOC1=C(O)C=C[C@@]2(C)C1=CC[C@@H]1[C@@H]2CC[C@]2(C)C(=O)CC[C@@H]12` [HDDG-032], the “% Inhibition” value is, setting by setting: under setting [2], 32%; under setting [3], 98%; under setting [1], 93%.

Turning to `CO[C@H]1C[C@@H]2[C@H](CC[C@]3(C)C(=O)CC[C@@H]23)[C@@]2(C)C=CC(=O)C=C12` [HDDG-014], the “% Inhibition” value under setting [1] amounted to 42%.

Consider `C[C@]12C=CC(=O)C=C1[C@H](OC(=O)Cc1ccccc1)C[C@@H]1[C@@H]2CC[C@]2(C)C(=O)CC[C@@H]12` [HDDG-031], for which the “% Inhibition” value amounted to 0% under setting [2], 51% under setting [3] and 47% under setting [1].

With `CO[C@@H]1C[C@@H]2[C@H](CC[C@]3(C)C(=O)CC[C@@H]23)[C@@]2(C)C=CC(=O)C=C12` [HDDG-009], the “% Inhibition” value under setting [1] is 55%.

`CCOC1=C(O)C=C[C@@]2(C)C1=CC[C@@H]1[C@@H]2CC[C@]2(C)C(=O)CC[C@@H]12` [HDDG-007]: the “% Inhibition” value is recorded as 12% under setting [3] and 0% under setting [1].

With `CCC(=O)OC1=C(O)C=CC2(C)C1=CCC1C2CCC2(C)C(=O)CCC12` (stereo not shown) [HDDG-022], the “% Inhibition” value runs as follows: under setting [2], 51%; under setting [3], 86%; under setting [1], 86%.

Regarding `CC(=O)O[C@@H]1C[C@@H]2[C@H](CC[C@]3(C)C(=O)CC[C@@H]23)[C@@]2(C)C=CC(=O)C=C12` [HDDG-033], the “% Inhibition” value under setting [2] turned out to be 48%, the “% Inhibition” value under setting [3] was found to be 96% and the “% Inhibition” value under setting [1] is recorded as 100%.

On to `CO[C@@H]1C[C@@H]2[C@H](CC[C@]3(C)C(=O)CC[C@@H]23)[C@@]2(C)CCC(=O)C=C12` [HDDG-021], for which the “% Inhibition” value was 0% under setting [2], 70% under setting [3] and 63% under setting [1].

A word on the % Inhibition: it is the relative decrease from the control value, in per cent. High values mean strong suppression, low ones little suppression.

Values taken from patent publication US8969327B2, “Substituted androst-4-ene diones” (priority 2010, dated 2015).
